# In the oligonucleotide strings, read from the 5' end, every base follows the letter of its sugar. An asterisk marks phosphorothioate; unmarked linkages are phosphodiester. Other units and linkages are bracketed, terminal groups are in braces. A string of capitals states the bases alone. d = 2'-deoxy (DNA); m = 2'-O-methyl
# Tests used:
# Format in all cases: cell-based
# cGAS [1] = target: T1, cGAS (Homo sapiens, UniProt Q8N884); test: ISD70-driven IP-10 (and IFN-β) production in THP-1 cells, ELISA; set-up: endogenous in cells; host or cells: THP-1 (undifferentiated); details: THP-1; 2′OMe or PS oligos, 100-250 nM, pre-treatment as in figure legends; ISD70 2.5 μg/ml
# T1 sequence (Q8N884 whole entry): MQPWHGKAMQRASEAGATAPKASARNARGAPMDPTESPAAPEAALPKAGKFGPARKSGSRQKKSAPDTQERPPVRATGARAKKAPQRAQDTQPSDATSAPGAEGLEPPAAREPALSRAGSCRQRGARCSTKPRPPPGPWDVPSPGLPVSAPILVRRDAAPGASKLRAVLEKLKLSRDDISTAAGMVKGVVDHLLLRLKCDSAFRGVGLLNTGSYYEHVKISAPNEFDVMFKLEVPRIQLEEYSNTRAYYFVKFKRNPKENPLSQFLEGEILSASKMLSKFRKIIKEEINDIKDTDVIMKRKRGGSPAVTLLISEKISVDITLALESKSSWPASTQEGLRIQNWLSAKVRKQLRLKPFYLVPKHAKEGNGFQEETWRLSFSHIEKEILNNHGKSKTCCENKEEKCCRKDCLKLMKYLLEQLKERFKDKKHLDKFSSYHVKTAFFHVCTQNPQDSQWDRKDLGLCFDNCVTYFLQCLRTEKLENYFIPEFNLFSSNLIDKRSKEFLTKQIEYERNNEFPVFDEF
# Method: The ability of an oligonucleotide to inhibit cGAS activity can, for example, be analysed by incubating cells which express cGAS with an oligonucleotide, then stimulating said cells with a cGAS agonist (e.g., 70-bp interferon stimulating DNA or ISD70; 45-bp interferon stimulating DNA or ISD45), and analysing the overall cGAS response in the cell population, or analysing the proportion of cells having cGAS-positive activity after a defined period of time.
# (§1) In such examples, inhibition of cGAS activity can be identified by observation of an overall decreased cGAS response of the cell population, or a lower proportion of cells having cGAS-positive activity as compared to positive control condition in which cells are treated with cGAS agonist in the absence of the oligonucleotide (or in the presence of an appropriate control inhibitory agent). In one example, THP-1 or HT-29 cells are transfected with ISD70 and incubated with an oligonucleotide. cGAS activity can then be determined by cytokine (e.g., IP-10 and/or IFNβ) expression (e.g., gene and/or protein expression) and/or secretion levels, such as by ELISA. A similar assay can be performed with LL171 cells transfected with ISD45. […] By way of example, cGAS enzymatic activity may be assessed in vitro using recombinant cGAS and then measuring activity thereof by way of a cGAMP ELISA.
# (§2) For cGAS stimulations, cells were treated for indicated duration with ASOs, prior to transfection with ISD70 (human cells) or ISD45 (mouse cells) (the ASOs were not washed off prior to ISD transfection unless otherwise indicated). The cGAS ligands ISD45 (Stetson and Medzhitov, 2006) and ISD70 (also known as VACV-70 (Unterholzner et al., 2010)) (Table 1) were resuspended as follows: 5 1d of sense and 5 μl of antisense strands at 10 μg/μl were added to 90 μl PBS under sterile conditions, heated at 75° C. for 30 min, prior to letting cool down at room temperature and aliquoting (stock at 1 μg/1 l). The ISDs were transfected at a concentration of […] at a ratio of 1 μg:1 μl with Lipofectamine 2000 in Opti-MEM (Thermo Fisher Scientific). HEK-TLR3, HEK-TLR7 and […] were treated with indicated concentration of ASOs for 20-50 min, prior to stimulation with poly(I:C) (Invivogen), R848 (Invivogen), Motolimod (MedChemExpress) and the Class B CpG oligonucleotides ODN 2006 (synthesised by IDT and resuspended in RNase-free TE buffer [Table 1]), respectively. The TLR2/1 agonist PAM3CSK4 (Invivogen), the TLR4 agonist lipopolysaccharide (Invivogen), the Class B CpG oligonucleotides ODN 1826 (synthesised by IDT and resuspended in RNase-free TE buffer), the mouse Sting agonist DMXAA (Cayman) and the human STING agonist (compound #3 from (Raanjulu et al., 2018), referred to as GSK herein—kind gift from Cancer Therapeutics CRC, Australia) were used at indicated concentrations. Aspirin (Sigma—A2093) was resuspended in pure medium to 10 mM, filter sterilised and added to the cells at 2 mM final. All ASOs were synthesised by Integrated DNA Technologies (IDT), and resuspended in RNase-free TE buffer, pH 8.0 (Thermo Fisher Scientific). Cell viability was assessed by adding 1× fresh resazurin solution to the wells (10λ solution made up with 7 mg resazurin [Sigma—R7017] dissolved in 3.5 ml PBS, sterile filtered at […]) for 4 h, prior to reading at with a Fluostar OPTIMA (BMG LABTECH) plate-reader (fluorescence: Excitation 535 nm, Emission 590); wells with medium only and 1× resazurin were used as blanks.
# mouse cGAS = target: T2, mouse cGAS (Mus musculus, UniProt Q8C6L5); test: ISD45-driven ISRE-luciferase in mouse LL171 cells; details: 2′OMe or PS oligos 50-600 nM, ISD45 2.5 μg/ml overnight
# T2 construct: endogenous in cells; host or cells: LL171 (mouse L929 cells with ISRE-Luciferase)
# T2 sequence (Q8C6L5 whole entry): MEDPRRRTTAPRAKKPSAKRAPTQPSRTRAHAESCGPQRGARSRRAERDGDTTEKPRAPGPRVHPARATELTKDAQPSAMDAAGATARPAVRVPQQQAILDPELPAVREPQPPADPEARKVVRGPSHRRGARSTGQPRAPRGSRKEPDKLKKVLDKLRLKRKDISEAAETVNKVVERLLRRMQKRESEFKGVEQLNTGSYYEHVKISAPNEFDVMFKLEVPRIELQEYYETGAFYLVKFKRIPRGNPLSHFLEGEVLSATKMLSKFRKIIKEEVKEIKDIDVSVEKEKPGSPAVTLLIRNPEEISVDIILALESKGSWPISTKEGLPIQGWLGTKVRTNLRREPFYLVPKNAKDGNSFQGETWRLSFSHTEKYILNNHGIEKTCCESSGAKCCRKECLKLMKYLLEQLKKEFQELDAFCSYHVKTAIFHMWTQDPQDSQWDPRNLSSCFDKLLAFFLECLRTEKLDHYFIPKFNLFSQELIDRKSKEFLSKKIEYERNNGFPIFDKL
# Method: as §1, §2
# Following transfection, the cells were collected from the 6-wells and aliquoted into 96-wells, just before ASO and overnight TLR stimulation (as above described).
# human TLR9 = target: T3, human TLR9 (Homo sapiens, UniProt Q9NR96); test: HEK-TLR9 NF-κB-luciferase reporter, ODN2006 stimulation; details: HEK-TLR9; 500 nM 2′OMe or PS oligos; 200 nM ODN2006
# T3 construct: HA; host or cells: 293XL-hTLR9-HA (HEK293)
# T3 sequence (Q9NR96 26-1032): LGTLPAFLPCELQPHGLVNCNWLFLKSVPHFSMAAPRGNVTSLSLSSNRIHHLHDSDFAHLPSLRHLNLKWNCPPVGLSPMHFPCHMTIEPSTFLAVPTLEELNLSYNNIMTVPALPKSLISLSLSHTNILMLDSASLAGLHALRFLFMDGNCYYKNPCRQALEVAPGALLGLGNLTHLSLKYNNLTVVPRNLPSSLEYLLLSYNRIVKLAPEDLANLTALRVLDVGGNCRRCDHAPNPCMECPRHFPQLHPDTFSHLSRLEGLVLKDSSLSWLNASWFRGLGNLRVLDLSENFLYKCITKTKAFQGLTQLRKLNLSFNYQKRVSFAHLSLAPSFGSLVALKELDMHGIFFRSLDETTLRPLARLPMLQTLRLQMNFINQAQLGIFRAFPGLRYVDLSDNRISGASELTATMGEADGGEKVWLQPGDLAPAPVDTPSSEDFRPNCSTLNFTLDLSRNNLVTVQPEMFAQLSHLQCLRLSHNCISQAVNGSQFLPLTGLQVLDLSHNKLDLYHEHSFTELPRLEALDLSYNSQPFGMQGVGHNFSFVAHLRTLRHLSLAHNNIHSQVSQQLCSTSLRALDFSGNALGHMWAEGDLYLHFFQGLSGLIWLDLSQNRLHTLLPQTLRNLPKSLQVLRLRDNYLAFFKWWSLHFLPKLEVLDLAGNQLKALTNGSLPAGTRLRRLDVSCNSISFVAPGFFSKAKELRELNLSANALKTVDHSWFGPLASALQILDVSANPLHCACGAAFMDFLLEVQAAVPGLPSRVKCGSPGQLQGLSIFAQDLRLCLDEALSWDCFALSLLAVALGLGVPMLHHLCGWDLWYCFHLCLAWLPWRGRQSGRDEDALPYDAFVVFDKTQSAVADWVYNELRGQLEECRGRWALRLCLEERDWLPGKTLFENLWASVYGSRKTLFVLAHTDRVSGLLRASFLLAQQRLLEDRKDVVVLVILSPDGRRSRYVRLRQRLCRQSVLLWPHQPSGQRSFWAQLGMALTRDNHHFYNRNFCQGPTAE
# Method: In such examples, inhibition of TLR9 activity can be identified by observation of an overall decreased TLR9 response of the cell population, or a lower proportion of cells having TLR9-positive activity as compared to positive control condition in which cells are treated with TLR9 agonist in the absence of the oligonucleotide (or in the presence of an appropriate control inhibitory agent). In one example, HEK cells are transfected with TLR9 and a NF-κB reporter and incubated with an oligonucleotide and then stimulated with a TLR9 agonist. TLR9 activity can then be determined by a luciferase assay. TLR9 activity can also be analysed by measuring cytokine levels (e.g., IFN, IL-6, TNF and IL-12), for example by ELISA.
# as §2
# Following transfection, the cells were collected from the 6-wells and aliquoted into 96-wells, just before ASO and overnight TLR stimulation (as above described). Similarly, the LL171 cells expressing and ISRE-Luc reporter were treated overnight. The next day, the cells were lysed in 40 μl (for a 96-well plate) of 1× Glo Lysis buffer (Promega) for 10 min at room temperature. […] was then subjected to firefly luciferase assay using 40 μl of Luciferase Assay Reagent (Promega). Luminescence was quantified with a Fluostar OPTIMA (BMG LABTECH) luminometer.
# cGAS [2] = target: T1, cGAS; test: ISD70-driven IP-10 production in HT-29 cells, ELISA; set-up: endogenous in cells; details: ISD70 24 h; for effect on ISD70-induced IP-10 production at increased doses (in words): ASO overnight at 250 or 500 nM; for effect on ISD70-induced IP-10 production at low dose (in words): ASO overnight at 125 nM (62.5-125 nM)
# Method: as §1, §2
# Human IP-10 and IFN-β levels were measured using supernatants from the different cultures and were quantified using IP-10 (BD Biosciences, #550926) or IFN-β (PBL assay science, #41415-1) ELISA kits respectively, according to the manufacturers' protocol. Tetramethylbenzidine substrate (Thermo Fisher Scientific) was used for quantification of the cytokines on a Fluostar OPTIMA (BMG LABTECH) plate-reader.
# TLR3 = target: T4, TLR3 (Homo sapiens, UniProt O15455); test: HEK-TLR3 NF-κB-luciferase reporter, poly(I:C) stimulation; set-up: host or cells: HEK-Blue hTLR3 (HEK293); details: 100 nM ASOs/ODNs, poly(I:C) 0.5 μg/ml
# T4 sequence (O15455 24-904): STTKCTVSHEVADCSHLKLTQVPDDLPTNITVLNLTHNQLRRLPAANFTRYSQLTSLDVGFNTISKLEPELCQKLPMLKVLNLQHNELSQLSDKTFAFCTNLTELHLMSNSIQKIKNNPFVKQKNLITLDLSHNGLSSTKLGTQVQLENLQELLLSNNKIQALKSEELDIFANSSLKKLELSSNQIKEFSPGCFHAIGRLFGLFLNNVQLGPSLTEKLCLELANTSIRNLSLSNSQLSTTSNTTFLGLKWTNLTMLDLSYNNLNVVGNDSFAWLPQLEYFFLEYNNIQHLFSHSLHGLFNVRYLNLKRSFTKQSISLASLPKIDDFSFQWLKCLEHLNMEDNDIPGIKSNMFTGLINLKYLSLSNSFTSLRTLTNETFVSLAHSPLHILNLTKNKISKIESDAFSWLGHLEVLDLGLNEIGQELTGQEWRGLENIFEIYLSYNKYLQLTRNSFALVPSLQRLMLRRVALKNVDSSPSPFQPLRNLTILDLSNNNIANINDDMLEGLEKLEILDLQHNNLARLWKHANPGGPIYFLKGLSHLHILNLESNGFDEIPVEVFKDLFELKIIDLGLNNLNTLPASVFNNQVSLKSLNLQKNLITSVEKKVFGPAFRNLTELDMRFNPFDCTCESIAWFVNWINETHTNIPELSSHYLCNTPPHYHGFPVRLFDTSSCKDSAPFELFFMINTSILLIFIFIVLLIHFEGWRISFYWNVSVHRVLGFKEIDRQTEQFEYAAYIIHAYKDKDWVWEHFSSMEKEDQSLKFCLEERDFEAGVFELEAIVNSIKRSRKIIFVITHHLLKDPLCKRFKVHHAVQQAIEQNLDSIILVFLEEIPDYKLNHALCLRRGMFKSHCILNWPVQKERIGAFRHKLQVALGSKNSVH
Substance,inhibition of TLR9 sensing of ODN2006 (in words) (human TLR9),effect on ISD70-induced IP-10 production at low dose (in words) (cGAS [2]),further results
"G*C*G*G*T*A*T*C*C*A*T*G*T*C*C*C*A*G*G*C (GCGGTATCCATGTCCCAGGC; DNA, all phosphorothioate, methylation of C not given here) [C2-Mut1-PS]",–,–,inhibition of ISD70-driven IP-10 production (in words) (cGAS [1]): significantly decreased; inhibition of ISD45-driven ISRE-luciferase (in words) (mouse cGAS): significantly decreased
"mC*mU*mU*mU*mA*G*T*C*G*T*A*G*T*T*G*mC*mU*mU*mC*mC (CUUUAGTCGTAGTTGCUUCC; sugars from the 5' end m5 d10 m5, all phosphorothioate, methylation of C not given here) [ASO11]",lacked the capacity to inhibit TLR9,–,effect on ISD70-induced IP-10 production at increased doses (in words) (cGAS [2]): blocked ISD70-induced IP-10 production
"mG*mC*mG*mG*mU*A*T*A*C*A*G*G*T*C*C*mC*mA*mG*mG*mC (GCGGUATACAGGTCCCAGGC; sugars from the 5' end m5 d10 m5, all phosphorothioate, methylation of C not given here) [C2-Mut2]",–,increased inhibitory activity,–
mG*mG*mU*mC*mU*T*G*G*C*T*T*C*G*T*G*mG*mA*mG*mC*mA (mG*mG*mU*mC*mU*dT*dG*dG*dC*dT*dT*dC*dG*dT*dG*mG*mA*mG*mC*mA; antisense) [ASO5],significantly inhibited TLR9 sensing of ODN2006,–,inhibition of polyI:C sensing by TLR3 at 100 nM (in words) (TLR3): retained significant inhibition of polyL:C sensing
mU*mC*mC*mG*mG*C*C*T*C*G*G*A*G*T*C*mU*mC*mC*mA*mU (mU*mC*mC*mG*mG*dC*dC*dT*dC*dG*dG*dA*dG*dT*dC*mU*mC*mC*mA*mU; antisense) [ASO2up],–,more potent inhibitor of ISD70-driven IP-10 production than ASO2,–
mU*mC*mC*mG*mG*C*C*T*C*G*G*C*A*G*A*mU*mA*mU*mC*mG (mU*mC*mC*mG*mG*dC*dC*dT*dC*dG*dG*dC*dA*dG*dA*mU*mA*mU*mC*mG; antisense) [ASO2down],significantly reduced TLR9 inhibition,significantly increased IP-10 production,inhibition of ISD70-driven IP-10 production (in words) (cGAS [1]): significantly less inhibitory than ASO2up
mU*mG*mA*mU*mU*C*C*A*A*A*G*C*C*A*G*mG*mG*mU*mU*mA (mU*mG*mA*mU*mU*dC*dC*dA*dA*dA*dG*dC*dC*dA*dG*mG*mG*mU*mU*mA) [ASO10],significantly inhibited TLR9 sensing of ODN2006,–,effect on ISD70-induced IP-10 production at increased doses (in words) (cGAS [2]): blocked ISD70-induced IP-10 production

# Reference: patent publication US20240384268A1, “Oligonucleotides” (Hudson Institute of Medical Research, priority 2021, published 2024)
